Assay results taken from paper doi:10.1101/2022.01.05.475007v1 (biorxiv, 2022).

Experiments:
Sirt3 (hSirt3 118-399) [1] = target: T1, Sirt3 (hSirt3 118-399) (Homo sapiens, UniProt Q9NTG7); assay: switchSENSE kinetics; assay type: binding; details: absence of cofactors; HDAC buffer, 5% DMSO, 25 °C
T1 sequence (Q9NTG7 118-399): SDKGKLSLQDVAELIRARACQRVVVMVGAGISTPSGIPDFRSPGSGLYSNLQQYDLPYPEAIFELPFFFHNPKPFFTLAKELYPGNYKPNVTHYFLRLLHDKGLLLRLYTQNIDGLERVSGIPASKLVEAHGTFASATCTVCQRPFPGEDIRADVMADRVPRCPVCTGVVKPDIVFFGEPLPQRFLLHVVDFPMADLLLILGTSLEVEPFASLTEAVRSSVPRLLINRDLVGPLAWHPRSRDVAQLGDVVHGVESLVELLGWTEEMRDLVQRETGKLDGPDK

Sirt3 (hSirt3 118-399) [2] = target: T1, Sirt3 (hSirt3 118-399); assay: fluorescence deacetylation assay; assay type: biochemical; details: read-out: % control at 10 μM

SMILES | Kd (Sirt3 (hSirt3 118-399) [1]) [µM] | remaining activity at 10 µM (Sirt3 (hSirt3 118-399) [2]) [%]
CCCCNC(=O)COc1ccc2c(c1)CCc1ccccc1C2NC(=O)CCCOc1cc([N+](=O)[O-])c(C(C)O)cc1OC (centres unmarked) [AA8AC40] | 4.56 ± 3.5 | –
CCCCNC(=O)COc1ccc2c(c1)CCc1ccccc1C2NC(=O)CSC(=S)c1ccccc1 (centres unmarked) [AA8AC71] | – | 72.4

Second part, the compound after the results:

Kd (Sirt3 (hSirt3 118-399) [1]) [µM] | remaining activity at 10 µM (Sirt3 (hSirt3 118-399) [2]) [%] | SMILES
– | 75.7 | C=C(CC)C(=O)c1ccc(OCC(=O)NC2c3ccccc3CCc3cc(OCC(=O)NCCCC)ccc32)c(Cl)c1Cl (centres unmarked) [AA8AC92]
– | 76.5 | CCCCNC(=O)[C@@H](Cc1ccc(Cl)cc1)NC(=O)CSC(=S)c1ccccc1 [AA12AC71]
– | 83.1 | C=C(CC)C(=O)c1ccc(OCC(=O)N[C@H](Cc2ccc(Cl)cc2)C(=O)NCCCC)c(Cl)c1Cl [AA12AC92]
